What is called IC50 is the concentration that gives 50% inhibition.

The values below come from ChEMBL document CHEMBL1141627, “A cell-penetrating peptidic GRP78 ligand for tumor cell-specific prodrug therapy” (Bioorg Med Chem Lett, 2008).

The test deals with SJSA-1. Kind of test: Cytotoxicity against human SJSA1 cells expressing GRP78 after 6 hrs by MTT assay. Type of test: functional, cell-based. The note with it: SJSA-1, 6 h. A general note: Tetrazolium dyes change colour on reduction, which living cells bring about.

Positions of bridges follow the written chain, without caps; N, C: chain ends. Non-standard residues stand in square brackets, D forms with d. Residues, ends and D or L forms follow the SMILES beside them. *: point of attachment. X1 = CC(=O)O[C@H]1C(=O)[C@@]2(C)[C@H]([C@H](OC(=O)c3ccccc3)[C@]3(O)C[C@H](OC(=O)[C@H](OC(=O)OCc4ccc(N*)cc4)[C@@H](NC(=O)c4ccccc4)c4ccccc4)C(C)=C1C3(C)C)[C@]1(OC(C)=O)CO[C@@H]1C[C@@H]2O; Cit = NC(=O)NCCC[C@H](N)C(=O)O

`CC(=O)N[C@H]1CSSC[C@@H](C(=O)N[C@H](C(=O)N[C@@H](CCCNC(N)=O)C(=O)N[C@H](C(=O)N[C@@H](CCCNC(N)=O)C(=O)Nc2ccc(COC(=O)O[C@@H](C(=O)O[C@H]3C[C@@]4(O)[C@@H](OC(=O)c5ccccc5)[C@@H]5[C@]6(OC(C)=O)CO[C@@H]6C[C@H](O)[C@@]5(C)C(=O)[C@H](OC(C)=O)C(=C3C)C4(C)C)[C@@H](NC(=O)c3ccccc3)c3ccccc3)cc2)C(C)C)C(C)C)NC(=O)[C@H](C(C)C)NC(=O)[C@H](CCCNC(=N)N)NC(=O)[C@H](C(C)C)NC(=O)[C@H](Cc2ccc(O)cc2)NC(=O)CNC(=O)CNC(=O)[C@@H]2CCCN2C(=O)[C@H](CC(C)C)NC(=O)[C@H](C)NC(=O)[C@H](C(C)C)NC(=O)[C@H]([C@@H](C)O)NC1=O` (Ac-CTVALPGGYVRVCV[Cit]V[Cit]-X1; disulfide 1-13) yielded an IC50 of 1.1 nM. In other words, the single-digit nanomolar range.

Take `COc1cccc2c1C(=O)c1c(O)c3c(c(O)c1C2=O)C[C@@](O)(C(=O)CO)C[C@@H]3O[C@H]1C[C@H](N)[C@H](O)[C@H](C)O1` [DOXORUBICIN]: inhibition was half-maximal at 6.2 nM (IC50). This IC50 is about 5.6-fold higher than that of the compound before.

`CC(=O)O[C@H]1C(=O)[C@@]2(C)[C@H]([C@H](OC(=O)c3ccccc3)[C@]3(O)C[C@H](OC(=O)[C@H](O)[C@@H](NC(=O)c4ccccc4)c4ccccc4)C(C)=C1C3(C)C)[C@]1(OC(C)=O)CO[C@@H]1C[C@@H]2O` [PACLITAXEL] showed a half-inhibitory concentration (IC50) of 3.2 nM. Against the preceding compound, the IC50 is about 1.9-fold lower.
